Reference: ChEMBL document CHEMBL1125860 (J Med Chem, 1991)
Blank lines part the entries; values can stand above or below the compound they belong to. Calls of active or inactive are those of the source. The rule behind the calls is not given here.

Assays:
[1] = biological target: Aldo-keto reductase family 1 member B1 (Bos taurus) (UniProt P16116); assay: In vitro % decrease of aldose reductase was measured in isolated partially purified bovine lens preparations at 10e-7 M concentration; Not active
[2] = system: Rattus norvegicus; assay: In vivo inhibition of galactitol accumulation in sciatic nerves of rat at 20 mg/kg/day; Not significant; format: functional, organism-based; settings: Sciatic nerve
[3] = system: Rattus norvegicus; assay: In vivo inhibition of galactitol accumulation in sciatic nerves of rat at 24 mg/kg/day; format: functional; settings: Sciatic nerve
[4] = system: Rattus norvegicus; assay: In vivo inhibition of galactitol accumulation in diaphragm of rat at 20 mg/kg/day; Not significant; format: functional, organism-based
[5] = system: Rattus norvegicus; assay: In vivo inhibition of galactitol accumulation in diaphragm of rat at 24 mg/kg/day; format: functional
[6] = biological target: Aldo-keto reductase family 1 member B1 (Bos taurus) (UniProt P16116); assay: In vitro % decrease of aldose reductase measured in isolated partially purified bovine lens preparations at 10e-7 M concentration
[7] = system: Rattus norvegicus; assay: In vivo inhibition of galactitol accumulation in diaphragm of rat at 26 mg/kg/day; format: functional
[8] = system: Rattus norvegicus; assay: In vivo inhibition of galactitol accumulation in sciatic nerves of rat at 26 mg/kg/day; Not significant; format: functional, organism-based; settings: Sciatic nerve
[9] = system: Rattus norvegicus; assay: In vivo inhibition of galactitol accumulation in diaphragm of rat at 50 mg/kg/day; Not significant; format: functional, organism-based
[10] = system: Rattus norvegicus; assay: In vivo inhibition of galactitol accumulation in sciatic nerves of rat at 50 mg/kg/day; Not significant; format: functional, organism-based; settings: Sciatic nerve
[11] = species on record: Rattus norvegicus; assay: In vitro inhibition of sorbitol accumulation was measured in rat sciatic nerves incubated in the presence of 50 mM glucose at 10e-5 M concentration; format: functional, Sciatic nerve
[12] = species on record: Rattus norvegicus; assay: In vitro inhibition of sorbitol accumulation was measured in rat sciatic nerves incubated in the presence of 50 mM glucose at 10e-6 M concentration; format: functional, Sciatic nerve
[13] = system: Rattus norvegicus; assay: In vivo inhibition of galactitol accumulation in diaphragm of rat at 50 mg/kg/day; format: functional
[14] = system: Rattus norvegicus; assay: In vivo inhibition of galactitol accumulation in diaphragm of rat at 48 mg/kg/day; format: functional
[15] = system: Rattus norvegicus; assay: In vivo inhibition of galactitol accumulation in sciatic nerves of rat at 48 mg/kg/day; format: functional; settings: Sciatic nerve
[16] = system: Rattus norvegicus; assay: In vivo inhibition of galactitol accumulation in diaphragm of rat at 27 mg/kg/day; format: functional
[17] = system: Rattus norvegicus; assay: In vivo inhibition of galactitol accumulation in sciatic nerves of rat at 27 mg/kg/day; Not significant; format: functional, organism-based; settings: Sciatic nerve
[18] = system: Rattus norvegicus; assay: In vivo inhibition of galactitol accumulation in diaphragm of rat at 49 mg/kg/day; format: functional
[19] = system: Rattus norvegicus; assay: In vivo inhibition of galactitol accumulation in sciatic nerves of rat at 49 mg/kg/day; Not significant; format: functional, organism-based; settings: Sciatic nerve
[20] = biological target: Aldo-keto reductase family 1 member B1 (Bos taurus) (UniProt P16116); assay: In vitro % decrease of aldose reductase was measured in isolated partially purified bovine lens preparations at 10e-6 M concentration
[21] = system: Rattus norvegicus; assay: In vivo inhibition of galactitol accumulation in diaphragm of rat at 47 mg/kg/day; Not significant; format: functional, organism-based
[22] = system: Rattus norvegicus; assay: In vivo inhibition of galactitol accumulation in sciatic nerves of rat at 47 mg/kg/day; Not significant; format: functional, organism-based; settings: Sciatic nerve
[23] = system: Rattus norvegicus; assay: In vivo inhibition of galactitol accumulation in sciatic nerves of rat at 25 mg/kg/day; format: functional; settings: Sciatic nerve
[24] = system: Rattus norvegicus; assay: In vivo inhibition of galactitol accumulation in diaphragm of rat at 25 mg/kg/day; format: functional
[25] = system: Rattus norvegicus; assay: In vivo inhibition of galactitol accumulation in diaphragm of rat at 25 mg/kg/day; […]; format: functional, organism-based
[26] = system: Rattus norvegicus; assay: In vivo inhibition of galactitol accumulation in sciatic nerves of rat at 25 mg/kg/day; Not significant; format: functional, organism-based; settings: Sciatic nerve
[27] = system: Rattus norvegicus; assay: In vivo inhibition of galactitol accumulation in sciatic nerves of rat at 49 mg/kg/day; format: functional; settings: Sciatic nerve
[28] = system: Rattus norvegicus; assay: In vivo inhibition of galactitol accumulation in diaphragm of rat at 5 mg/kg/day; format: functional
[29] = system: Rattus norvegicus; assay: In vivo inhibition of galactitol accumulation in sciatic nerves of rat at 10 mg/kg/day; format: functional; settings: Sciatic nerve
[30] = system: Rattus norvegicus; assay: In vivo inhibition of galactitol accumulation in sciatic nerves of rat at 5 mg/kg/day; format: functional; settings: Sciatic nerve
[31] = system: Rattus norvegicus; assay: In vivo inhibition of galactitol accumulation in diaphragm of rat at 10 mg/kg/day; format: functional
[32] = system: Rattus norvegicus; assay: In vivo inhibition of galactitol accumulation in sciatic nerves of rat at 24 mg/kg/day; Not significant; format: functional, organism-based; settings: Sciatic nerve
[33] = system: Rattus norvegicus; assay: In vivo inhibition of galactitol accumulation in sciatic nerves of rat at 50 mg/kg/day; format: functional; settings: Sciatic nerve
[34] = biological target: Aldo-keto reductase family 1 member B1 (Bos taurus) (UniProt P16116); assay: In vitro% decrease of aldose reductase was measured in isolated partially purified bovine lens preparations at 10e-7 M concentration
[35] = system: Rattus norvegicus; assay: In vivo inhibition of galactitol accumulation in sciatic nerves of rat at 52 mg/kg/day; Not significant; format: functional, organism-based; settings: Sciatic nerve
[36] = system: Rattus norvegicus; assay: In vivo inhibition of galactitol accumulation in diaphragm of rat at 52 mg/kg/day; Not significant; format: functional, organism-based

SMILES: CCOC(=O)N(CC(=O)O)C(=O)c1c(Cl)ccc2c(C(F)(F)F)c(OC)ccc12
inhibition [6]: 79% | inhibition in vivo at 50 mg/kg/day [13]: 47% | inhibition [10]: inactive | Inhibition [11]: 79% | Inhibition [12]: 54%

SMILES: COc1ccc2c(C(=O)N(C)CC(=O)O)c(Oc3ccccc3)ccc2c1C(F)(F)F
inhibition [6]: 83% | inhibition in vivo at 48 mg/kg/day [14]: 67% | inhibition in vivo at 48 mg/kg/day [15]: 32% | Inhibition [11]: 78% | Inhibition [12]: 45%

SMILES: CCOC(=O)N(CC(=O)O)C(=O)c1c(OCC(F)(F)F)ccc2c(C(F)(F)F)c(OC)ccc12
inhibition [6]: 78% | inhibition in vivo at 27 mg/kg/day [16]: 39% | inhibition [17]: inactive | Inhibition [11]: 72% | Inhibition [12]: 42%

SMILES: CCCCOc1ccc2c(C(F)(F)F)c(OC)ccc2c1C(=O)N(C)CC(=O)O
inhibition [6]: 42% | inhibition in vivo at 49 mg/kg/day [18]: 55% | inhibition [19]: inactive

SMILES: COc1ccc2c(C(=O)N(C)CC(=O)O)c(C(C)(C)C)ccc2c1C(F)(F)F
inhibition [20]: 23% | inhibition [6]: 6% | inhibition [21]: inactive | inhibition [22]: inactive

SMILES: COc1ccc2c(C(=O)N(C)CC(N)=O)c(Cl)ccc2c1C(F)(F)F
inhibition [1]: inactive | inhibition in vivo at 24 mg/kg/day [3]: 62% | inhibition in vivo at 24 mg/kg/day [5]: 53%

SMILES: COC(=O)N(CC(=O)O)C(=O)c1c(Cl)ccc2c(C(F)(F)F)c(OC)ccc12
inhibition [6]: 85% | inhibition in vivo at 26 mg/kg/day [7]: 68% | Inhibition [11]: 75% | Inhibition [12]: 49%

SMILES: COc1ccc2c(C(=O)N(C)CC(N)=O)c(OCC(F)(F)F)ccc2c1C(F)(F)F
inhibition [1]: inactive | inhibition [25]: inactive | inhibition [26]: inactive

SMILES: CCOc1ccc2c(C(F)(F)F)c(OC)ccc2c1C(=O)N(C)CC(=O)O
inhibition [6]: 65% | inhibition in vivo at 49 mg/kg/day [18]: 57% | inhibition in vivo at 49 mg/kg/day [27]: 45% | Inhibition [11]: 55% | Inhibition [12]: 30%

SMILES: CCOC(=O)NC(=O)CN(C)C(=O)c1c(F)ccc2c(C(F)(F)F)c(OC)ccc12
inhibition [1]: inactive | inhibition in vivo at 5 mg/kg/day [28]: 22% | inhibition in vivo at 10 mg/kg/day [29]: 59% | inhibition in vivo at 5 mg/kg/day [30]: 36% | inhibition in vivo at 10 mg/kg/day [31]: 41%

SMILES: CCCOc1ccc2c(C(F)(F)F)c(OC)ccc2c1C(=O)N(C)CC(=O)O
inhibition [6]: 46% | inhibition in vivo at 50 mg/kg/day [13]: 57% | inhibition in vivo at 50 mg/kg/day [33]: 48%

Further lines, with some results ahead:

inhibition [1]: inactive
SMILES: COc1ccc2c(C(=S)N(C)CC(N)=O)cc(C)cc2c1Br
inhibition [2]: inactive | inhibition in vivo at 24 mg/kg/day [3]: 68% | inhibition [4]: inactive | inhibition in vivo at 24 mg/kg/day [5]: 70%

inhibition [6]: 86%
SMILES: COc1ccc2c(C(=S)N(C)CC(=O)O)cc(F)cc2c1Br
inhibition in vivo at 26 mg/kg/day [7]: 86% | inhibition [8]: inactive

inhibition [6]: 63%
SMILES: COc1ccc2c(C(=O)N(C)CC(=O)O)cc(-c3ccccc3)cc2c1C(F)(F)F
inhibition [9]: inactive | inhibition [10]: inactive | Inhibition [11]: 77% | Inhibition [12]: 32%

inhibition [6]: 84%
SMILES: COc1ccc2c(C(=S)N(C)CC(=O)O)ccc(F)c2c1C(F)(F)F
inhibition in vivo at 25 mg/kg/day [23]: 94% | inhibition in vivo at 25 mg/kg/day [24]: 90%

inhibition [6]: 81%
SMILES: COc1ccc2c(C(=S)N(C)CC(=O)O)c(Cl)ccc2c1C(F)(F)F
inhibition [32]: inactive | inhibition in vivo at 24 mg/kg/day [5]: 90%

inhibition [6]: 94%
SMILES: COc1ccc2c(C(=S)N(C)CC(=O)O)cc(Br)cc2c1Br
inhibition in vivo at 26 mg/kg/day [7]: 86% | inhibition [8]: inactive

inhibition [34]: 66%
SMILES: COc1ccc2c(C(=O)N(C)CC(=O)O)cc(Cc3ccc(Br)cc3F)cc2c1Br
inhibition [35]: inactive | Inhibition [11]: 92% | Inhibition [12]: 63% | inhibition [36]: inactive
